In paper PMC11237035, “Glutathione determines chronic myeloid leukemia vulnerability to an inhibitor of CMPK and TMPK” (Communications Biology, 2024):
Values joined by “and” are separate entries in the source; they are usually repeats but may differ in a detail not shown here. Identical values can stand only once.

Experiments:
untransformed 32D cells = test: CCK-8 cell viability assay, untransformed 32D cells; format: cell-based, mouse; settings: for viability (0 = 100): Untransformed
Method: After 72 h, viability assays were performed.
3 independent experiments. Asterisks denote ***p<0.001 from non-paired two-tailed

T315I-Bcr-Abl-32D cells [1] = test: DNA fiber assay (replication speed), T315I-Bcr-Abl-32D cells; format: cell-based, mouse; settings: T315I-Bcr-Abl-32D cells, BSO 12.5 μM, 16 h
Method: (§1) The workflow of DNA fiber labeling (Right). The representative labeled fibers are shown below. Replication speed in kb/min was calculated by the measured length of IdU (green) linking to CldU (red) in μm with a conversion factor of 0.34 μm/kb divided by the duration of the labeling pulse (Scale bar = 10 μm). The gray triangle indicates the boundary between red fluorescence and green fluorescence. c The measurement of intracellular ROS by the fluorescence intensity of CellROX Green staining using flow cytometric analysis. Data are presented as mean intensity relative to untransformed 32D cells. d, e The measurement of GSSG and GSH. […] Schematic illustration of the metabolic path U-^13C glutamine incorporation into the GSH (left). Gray and white circles indicate ^13C-label, and unlabeled ^12C, respectively. The traced isotopologue abundance of GSH is shown (right).
(§2) The DNA fiber assay was performed as described previously. Briefly, cells were sequentially treated with the medium containing 25 μM of CldU (Sigma-Aldrich, C6891) and then 250 μM of IdU (Sigma-Aldrich, I7125) for 20 min. After washing, cells were suspended in PBS (1000 cells/ μL). 2 μL of cell suspension was spotted on slides. […] The lengths of red- and green-labeled fibers were determined by FluoView3.0 software (Olympus).

T315I-Bcr-Abl-32D cells [2] = test: CCK-8 cell viability assay, T315I-Bcr-Abl-32D cells; format: cell-based, mouse
T315I-Bcr-Abl-32D cells [3] = test: GSH/GSSG-Glo measurement, T315I-Bcr-Abl-32D cells; format: cell-based, mouse
Source text: (§3) The GSH/GSSG-Glo™ Assay Kit (Promega, V6611) was used for luminescent-based measurement of cellular GSH and GSSG by Tecan Spark 10 microplate reader.

WT-Bcr-Abl-32D cells [4] = test: CCK-8 cell viability assay, WT-Bcr-Abl-32D cells; format: cell-based, mouse; settings: WT-Bcr-Abl, single replicates
hTMPK = biological target: T1, hTMPK (Homo sapiens, UniProt P23919); test: biochemical
T1 sequence (P23919 1-212): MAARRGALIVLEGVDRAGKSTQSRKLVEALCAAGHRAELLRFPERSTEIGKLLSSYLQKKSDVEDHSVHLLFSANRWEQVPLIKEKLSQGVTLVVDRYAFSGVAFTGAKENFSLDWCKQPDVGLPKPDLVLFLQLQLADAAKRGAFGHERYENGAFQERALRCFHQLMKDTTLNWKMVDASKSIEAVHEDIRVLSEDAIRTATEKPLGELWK
Method: Activity assay was measured using the spectrophotometric method by coupling ADP formation to NADH oxidation catalyzed by pyruvate kinase and lactate dehydrogenase as described previously[20]. Each reaction contained 0.4 μg TMPK or 0.3 μg CMPK was incubated at 25 °C followed by using Tecan Spark 10 microplate reader to detect the change in NADH measurement at 340 nm absorption according to the manufacturer’s instructions.

WT-Bcr-Abl-32D cells [5] = test: DNA fiber assay (replication speed), WT-Bcr-Abl-32D cells; format: cell-based, mouse; settings: NAC 1 mM, 16 h
Method: as §1, §2

WT-Bcr-Abl-32D cells [6] = test: GSH/GSSG-Glo measurement, WT-Bcr-Abl-32D cells; format: cell-based, mouse
Source text: as §3

## CCCCS(=N)(=O)CCC(N)C(=O)O (centres unmarked) [BSO, buthionine sulphoximine]
Untransformed 32D cells; 32D cells, BSO 12.5 μM alone (JMF4073 0), single replicates
  viability (vehicle, 0 = 100): 83.2384 and 115 and 94.5481
T315I-Bcr-Abl-32D cells [1]
  lengths of replication tracks: reduced
T315I-Bcr-Abl-32D cells [2]; T315I, BSO alone (JMF4073 0), single replicates
  cell viability (% of NT, 0 JMF4073), Figure 5e: 99.4456 and 92 and 86.6884
T315I-Bcr-Abl-32D cells [2]; T315I-Bcr-Abl cells, BSO treatment alone
  growth of cells, BSO alone: did not suppress the growth
T315I-Bcr-Abl-32D cells [3]; Figure 5c, T315I-Bcr-Abl, BSO vs NT = 100, single replicates
  GSH%: 10.69% and 9.7% and 22.3%
T315I-Bcr-Abl-32D cells [3]; T315I-Bcr-Abl-32D cells, BSO 12.5 μM, 16 h
  cellular level of GSH: reduced

## O=c1[nH]cc(F)c(=O)[nH]1 [Compound 5-FU, 5-Fluorouracil]
WT-Bcr-Abl-32D cells [4]; 5-FU 50 nM
  viability (0 = 100): 107.177 and 94.9972 and 84.194 and 79.9956
WT-Bcr-Abl-32D cells [4]; 5-FU 100 nM
  viability (0 = 100): 65.5177 and 99.8323 and 74.733 and 69.6887
WT-Bcr-Abl-32D cells [4]; 5-FU 200 nM
  viability (0 = 100): 39.9892 and 67.384 and 54.7054 and 48.7266
WT-Bcr-Abl-32D cells [4]; 5-FU 400 nM
  viability (0 = 100): 24.7745 and 56.1347 and 30.6822 and 26.6217
Untransformed 32D cells; 5-FU 50 nM, single replicates
  viability (0 = 100): 73.4167 and 117.13 and 106.182 and 85.6469
Untransformed 32D cells; 5-FU 100 nM, single replicates
  viability (0 = 100): 72.9576 and 93.7766 and 105.148 and 51.3899
Untransformed 32D cells; 5-FU 200 nM, single replicates
  viability (0 = 100): 35.4417 and 92.003 and 84.6699 and 48.1556
Untransformed 32D cells; 5-FU 400 nM, single replicates
  viability (0 = 100): 6.096 and 36.2787 and 21.177 and 24.9913
Untransformed 32D cells; viability assays
  sensitivity compared among WT-, T315I-Bcr-Abl-32D and untransformed 32D progenitor cells: similar
T315I-Bcr-Abl-32D cells [2]; Mus musculus, T315I-Bcr-Abl, 5-FU 50 nM, single replicates, read-out: viability (0 = 100)
  viability at 0.05 µM: 84.6%
T315I-Bcr-Abl-32D cells [2]; Mus musculus, T315I-Bcr-Abl, 5-FU 400 nM, single replicates, read-out: viability (0 = 100)
  viability at 0.4 µM: 15%
T315I-Bcr-Abl-32D cells [2]; T315I-Bcr-Abl, 5-FU 50 nM, single replicates
  viability (0 = 100): 83.5736 and 80.5085 and 76.4058
T315I-Bcr-Abl-32D cells [2]; T315I-Bcr-Abl, 5-FU 100 nM, single replicates
  viability (0 = 100): 62.3323 and 96.9038 and 91.1488 and 80.2051
T315I-Bcr-Abl-32D cells [2]; T315I-Bcr-Abl, 5-FU 200 nM, single replicates
  viability (0 = 100): 35.7891 and 57.1142 and 42.6177 and 58.9854
T315I-Bcr-Abl-32D cells [2]; T315I-Bcr-Abl, 5-FU 400 nM, single replicates
  viability (0 = 100): 14.7128 and 7.825 and 11.0955

## CC(C)(C)OC(=O)N1CCN(C(=O)Cn2sc3ccccc3c2=O)CC1 [JMF2977]
hTMPK
  IC50: 290 nM

## CC(=O)N[C@@H](CS)C(=O)O [NAC, N-Acetyl-Cysteine]
WT-Bcr-Abl-32D cells [5]
  lengths of replication tracks: increased lengths of replication tracks
WT-Bcr-Abl-32D cells [4]; NAC with vehicle
  cell viability (% of NT vehicle), Figure 5h: 96.5592 and 69.512 and 104.601
WT-Bcr-Abl-32D cells [6]; Figure 5f, WT-Bcr-Abl, NAC vs NT = 100, single replicates
  GSH%: 161.382% and 219.818% and 187.248% and 315.164%
WT-Bcr-Abl-32D cells [6]; WT-Bcr-Abl-32D cells, NAC 1 mM, 16 h
  cellular GSH level: increased the cellular GSH level
